Results published in patent publication US8920334B2, “Method of breath analysis for determining liver capacity or microcirculation using 13C-labeled methacetin substrate” (Freie Universitaet Berlin, priority 2005, dated 2014).

How the values were obtained:
[1] = biological target: T1, enzyme CYP1A2 in the liver (Homo sapiens, UniProt P05177); test: 13C-methacetin breath test (LiMAx) before and after partial liver resection; format: in vivo; conditions: patients, mean
T1 construct: demethylated to paracetamol in a rapid one-step reaction by the enzyme CYP1A2 in the liver; from tissue; host or cells: liver of living patients (in vivo)
T1 sequence (P05177 1-516): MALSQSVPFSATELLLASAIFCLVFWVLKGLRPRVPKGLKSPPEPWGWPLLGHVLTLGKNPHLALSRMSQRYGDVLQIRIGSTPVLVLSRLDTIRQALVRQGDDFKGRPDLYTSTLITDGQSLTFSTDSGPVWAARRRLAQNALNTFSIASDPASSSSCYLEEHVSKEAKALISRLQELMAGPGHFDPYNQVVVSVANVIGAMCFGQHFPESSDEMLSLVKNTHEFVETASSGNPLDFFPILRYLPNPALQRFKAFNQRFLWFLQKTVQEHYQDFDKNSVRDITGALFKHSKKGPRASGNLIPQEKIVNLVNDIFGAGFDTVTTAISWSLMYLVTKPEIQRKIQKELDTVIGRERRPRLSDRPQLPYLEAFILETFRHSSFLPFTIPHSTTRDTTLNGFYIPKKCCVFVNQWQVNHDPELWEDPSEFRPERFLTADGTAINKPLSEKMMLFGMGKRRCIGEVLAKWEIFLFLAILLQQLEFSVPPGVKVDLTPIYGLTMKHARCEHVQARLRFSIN
Experimental: This object is achieved by an analysis method, for determining a functional parameter of an organ of a human or animal individual. According to this analysis method, the ^13CO2 content in the air exhaled by the individual is measured, the ^13CO2 in the body of the individual being formed enzymatically from a substrate that has been administered beforehand to the individual, and then being exhaled by the individual. The measurement of the ^13CO2 content in the air exhaled by the individual is carried out using a suitable measurement device. The maximum reaction rate of the substrate in the body of the individual is determined via a change of the measured ^13CO2 content in the air exhaled by the individual using zero-order enzyme kinetics. The analysis method according to the invention therefore proceeds from a consideration of enzyme kinetics.
In a particularly preferred embodiment of the invention, the maximum reaction rate (LiMAx) is calculated through the converted quantity of substrate per unit of time in μg/h/kg bodyweight at variable times at which the maximum value is reached, such that genuine quantification of the maximum functional liver capacity can be made. The calculation is carried out according to the following formula (1), which describes zero-order enzyme kinetics: […]
Here, δ^13C is the difference between the ^13CO2/^12CO2 ratio of the sample and the Pee Dee Belmite (PDB) standard in delta per mil, RPDB is the ^13CO2/^12CO2 ratio of the PDB standard (0.0112375), P is the CO2 production rate (300 mmol/h×surface area of body in m^2), M is the molecular weight of the substrate, and KG is the actual bodyweight of the individual in kg.
The inundation time is preferably used to assess the microcirculation in the liver, so as to be able to detect microcirculation disturbances. Assuming the quickest possible inundation by in particular intravenous bolus injection and substrate excess and the high first-pass effect of methacetin or another substrate, the hepatic microcirculation can be assessed particularly advantageously. The inundation time needed to reach the maximum reaction rate tvmax is determined, said inundation time lengthening in the presence of microcirculation disturbances, since in this case the substrate inundation is not uniformly or completely delayed in all areas of the liver. Liver perfusion can thus be assessed.
The rapid substrate inundation required for the enzyme-kinetic evaluation is ensured by the fact that ^13C methacetin is administered intravenously in a bolus. The intravenous bolus injection ensures an immediate and complete substrate inundation in the liver. The absorption of the test substance ^13C-methacetin is no longer the step that determines the reaction rate. With the preferred dose of 2 mg methacetin per kg bodyweight, a temporary enzyme utilization is also permitted in patients with a healthy liver by a short-term substrate excess. This permits the actual quantitative expressiveness, since zero-order enzyme kinetics are achieved, and only this permits a statement concerning the maximum functional capacity of an enzyme system.
In the context of a prospective study, a method, which is discussed in more detail below, was used to evaluate liver function before and after partial liver resection in a number of patients: • 1. […]

[2] = cited from earlier work

Row | inundation time (tvmax) until maximum reaction rate ([1]; after partial liver resection) [min] | inundation time (tvmax) until maximum reaction rate ([1]; before partial liver resection) [min] | maximum functional liver capacity (LiMAx) ([1]; post-operative day 1 (POD1) after partial liver resection) [µg/h/kg] | maximum functional liver capacity (LiMAx) ([1]; post-operative day 10 (POD10) after partial liver resection) [µg/h/kg] | maximum functional liver capacity (LiMAx) ([1]; pre-operative (before partial liver resection), intravenous 13C-methacetin solution) [µg/h/kg] | Compound | solubility ([2]; in water or in an aqueous buffer) | stability of aqueous solution (crystallization) ([2]; usually aqueous solution)
1 | 53.5 ± 7.51 | 11.9 ± 2.17 | 141 ± 13 | 249 ± 17 | 301 ± 24 | COc1ccc(NC(C)=O)cc1 [^13C-methacetin] | – | –
2 | – | – | – | – | – | COc1ccc(NC(C)=O)cc1 [methacetin] | extremely sparingly soluble | crystallizes out of a usually aqueous solution within a period of hours to days
